Source: US20090010873A1, “Methods of Cell Therapy, Neurogenesis and Oligodendrogenesis” (YEDA RESEARCH AND DEVELOPMENT CO. LTD., priority 2004, published 2009)

What was measured:
APP/PS1 Tg mice [1] = assay: GA vaccination of APP/PS1 Tg mice: Morris water maze; assay type: in vivo, mouse; conditions: five weeks after first GA injection, vs untreated Tg mice
APP/PS1 Tg mice [2] = assay: GA vaccination of APP/PS1 Tg mice: hippocampal histology (plaques, microglia, neurons, neurogenesis); assay type: in vivo, mouse
Description: (xlviii) Glatiramer acetate vaccination. Each mouse was subcutaneously injected five times with a total of 100 μg of glatiramer acetate (GA (TV-5010), MW 13.5-18.5 kDa, average 16 kDa, Teva Pharmaceutical Industries Ltd., Petach Tikva, Israel), emulsified in 200 μl PBS×1, from experimental day 0 until day 24, twice during the first week and once a week thereafter.
(l) Administration of BrdU and tissue preparation. BrdU was dissolved by sonication in PBS and injected i.p. into each mouse (50 mg/kg body weight; 1.25 mg BrdU in 200 μl PBS×1). Starting from experimental day 22 after the first GA vaccination, BrdU was injected i.p. twice daily, every 12 h for 2.5 days, to label proliferating cells. Three weeks after the first BrdU injection the mice were deeply anesthetized and perfused transcardially, first with PBS and then with 4% paraformaldehyde. The whole brain was removed, postfixed overnight, and then equilibrated in phosphate-buffered 30% sucrose. Free-floating 30-μm sections were collected on a freezing microtome (Leica SM2000R) and stored at 4° C. prior to immunohistochemistry.
For immunohistochemistry, tissue sections were treated with a permeabilization/blocking solution containing 10% FCS, 2% bovine serum albumin, 1% glycine, and 0.05% Triton X-100 (Sigma-Aldrich, St. Louis). Tissue sections were stained overnight at 4° C. with specified combinations of the following primary antibodies: rat anti-BrdU (1:200; Oxford Biotechnology, Kidlington, Oxfordshire, UK), goat anti-DCX [doublecortin] (1:400; Santa Cruz Biotechnology), and mouse anti-NeuN [neuronal nuclear protein] (1:200; Chemicon, Temecula, Calif.). Secondary antibodies were FITC-conjugated donkey anti-goat, Cy-3-conjugated donkey anti-mouse, and Cy-3- or Cy-5-conjugated donkey anti-rat (1:200; Jackson ImmunoResearch, West Grove, Pa.). For labeling of microglia we used either CD11b (MAC1; 1:50; BD-Pharmingen) or FITC-conjugated Bandeiraea simplicifolia isolectin B4 (IB4, 1:50; Sigma-Aldrich, Rehovot). To detect expression of cell-surface MHC-II proteins we used anti-MHC-II Abs (rat, clone IBL-5/22; 1:50; Chemicon, Temecula, Calif.). To detect expression of human Aβ we used anti-Aβ (human amino-acid residues 1-17) (mouse, clone 6E10, Chemicon, Temecula, Calif.). Expression of IGF-I was detected by goat anti-IGF-I Abs (1:20; R&D Systems). Expression of TNF-α was detected by goat anti-TNF-α Abs (1:100; R&D Systems). T cells were detected with anti-CD3 polyclonal Abs (rabbit, 1:100; DakoCytomation, Calif.). Propidium iodide (1 μg/ml; Molecular Probes, Invitrogen, Carlsbad, Calif.) was used for nuclear staining.
For in-vivo experiments, the number of Aβ^+ plaques and CD11b^+/IB-4^+ microglia in the hippocampus were counted at 300-μm intervals from 6-8 coronal sections (30 μm) from each mouse. Neurogenesis in the DG was evaluated by counting of premature neurons (DCX^+), proliferating cells (BrdU^+), and newly formed mature neurons (BrdU^+/NeuN^+) in six coronal sections (30 μm) from each mouse. Specificity of BrdU^+/NeuN^+ co-expression was assayed using the confocal microscope (LSM 510) in optical sections at 1-μm intervals/. Cell counts, numbers of Aβ^+ plaques, plaque areas, and intensity of NeuN staining per unit area in the DG were evaluated automatically using Image-Pro Plus 4.5 software (Media Cybernetics).

glatiramer acetate [GA]
MWM performance (spatial learning/memory) (APP/PS1 Tg mice [1]): superior to that of the untreated Tg mice | number of Aβ plaques in hippocampus (APP/PS1 Tg mice [2]; 6 weeks later, vs untreated Tg mice): significantly fewer plaques | newly formed mature neurons (BrdU^+/NeuN^+) (APP/PS1 Tg mice [2]; compared to non-Tg littermates): similar | DCX^+ cells in dentate gyrus (APP/PS1 Tg mice [2]; relative to non-Tg littermates): slightly but significantly more | BrdU^+ cells in dentate gyrus (APP/PS1 Tg mice [2]; vs untreated Tg mice): significantly more BrdU^+ cells | CD11b^+ microglia (APP/PS1 Tg mice [2]; vs untreated Tg mice): significantly fewer CD11b^+ microglia | area occupied by the plaques (APP/PS1 Tg mice [2]; vs untreated Tg mice): significantly smaller | staining for NeuN (APP/PS1 Tg mice [2]; vs untreated Tg mice): significantly more intense staining for NeuN
